Square brackets hold non-standard residues; d marks the D form. Ends that are not written are not given here. Peptide text beside a SMILES is read from it. Tle = CC(C)(C)[C@H](N)C(=O)O
Assays:
rat DPP IV = rat DPP IV (Rattus norvegicus, UniProt P14740); experiment: Digestion of model hexapeptides by rat DPP IV (LCMS); conditions: for half-life: pH 8
From the text: The data were fit to a single phase exponential equation.
DPP-IV cleaves the N-terminal dipeptide from peptides with either Pro or Ala in the penultimate position (P2).

db mice [1] = experiment: Time course of blood glucose lowering in db mice; conditions: 8 μg injected; for duration of action (in words): db / diabetic mice
Protocol: At each time point the percent change in blood glucose was determined for 10 mice and the average change±SEM is plotted.
At each time point, the percentage change in blood glucose was determined for 10 mice and the average change±SEM is plotted.
In an exemplary embodiment, for treatment of the mice with a regimen including a peptide hormone analog or control, sub-orbital sinus blood samples are taken before and at some time (e.g., 60 minutes) after dosing of each animal. Blood glucose measurements can be made by any of several conventional techniques, such as using a glucose meter. The blood glucose levels of the control and peptide hormone analog dosed animals are compared

db mice [2] = experiment: Dose response of blood glucose lowering in diabetic (db) mice; format: in vivo; conditions: blood glucose 60 minutes post injection
From the text: The data were fit to a sigmoidal dose response curve.

human GLP-1 receptor = human GLP-1 receptor (Homo sapiens, UniProt P43220); conditions: peptide concentration 300 nM
Sequence of human GLP-1 receptor (P43220 24-463): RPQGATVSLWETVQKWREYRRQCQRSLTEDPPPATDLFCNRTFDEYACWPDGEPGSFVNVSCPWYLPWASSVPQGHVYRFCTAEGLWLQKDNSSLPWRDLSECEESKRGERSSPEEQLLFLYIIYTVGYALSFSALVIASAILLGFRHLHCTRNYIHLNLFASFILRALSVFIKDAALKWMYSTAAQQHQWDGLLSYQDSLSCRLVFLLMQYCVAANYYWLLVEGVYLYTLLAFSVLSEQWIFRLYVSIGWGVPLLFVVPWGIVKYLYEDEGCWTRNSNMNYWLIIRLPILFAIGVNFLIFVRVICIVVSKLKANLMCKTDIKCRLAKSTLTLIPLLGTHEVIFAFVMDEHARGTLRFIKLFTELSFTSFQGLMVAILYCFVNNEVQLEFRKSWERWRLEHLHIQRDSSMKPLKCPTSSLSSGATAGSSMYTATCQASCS
Protocol: Peptides were tested for agonist activity at a concentration of 300 nM. The data represent the mean±SEM with n=4.
Data values∓SEM are plotted and fit to a sigmoidal dose-response curve.

Sequence of rat DPP IV (P14740 whole entry): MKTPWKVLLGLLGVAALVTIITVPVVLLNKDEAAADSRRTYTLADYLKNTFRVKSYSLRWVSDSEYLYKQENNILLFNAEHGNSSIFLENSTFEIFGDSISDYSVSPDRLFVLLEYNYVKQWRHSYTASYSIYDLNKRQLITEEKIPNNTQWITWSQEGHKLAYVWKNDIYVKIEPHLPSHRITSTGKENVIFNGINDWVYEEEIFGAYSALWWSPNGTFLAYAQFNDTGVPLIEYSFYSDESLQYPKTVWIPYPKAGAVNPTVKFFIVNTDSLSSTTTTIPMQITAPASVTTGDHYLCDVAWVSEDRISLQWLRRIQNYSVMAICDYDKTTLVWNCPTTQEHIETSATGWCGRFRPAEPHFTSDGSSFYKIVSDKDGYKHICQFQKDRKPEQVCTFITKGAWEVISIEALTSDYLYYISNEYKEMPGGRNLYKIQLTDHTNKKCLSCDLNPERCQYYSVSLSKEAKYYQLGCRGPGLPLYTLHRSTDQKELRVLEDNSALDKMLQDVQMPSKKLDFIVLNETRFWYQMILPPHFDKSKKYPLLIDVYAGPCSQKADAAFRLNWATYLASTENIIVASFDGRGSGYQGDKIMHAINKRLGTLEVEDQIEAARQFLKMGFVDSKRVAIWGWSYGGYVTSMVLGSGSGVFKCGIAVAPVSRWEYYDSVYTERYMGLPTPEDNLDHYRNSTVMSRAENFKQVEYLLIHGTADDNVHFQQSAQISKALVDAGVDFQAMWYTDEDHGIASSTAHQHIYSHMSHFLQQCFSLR

Molecule: C[C@H](N)C(=O)N1CCC[C@H]1C(=O)N[C@H](C(=O)N[C@@H](CO)C(=O)N[C@@H](Cc1c[nH]c2ccccc12)C(=O)N[C@@H](CO)C(N)=O)C(C)(C)C [Ala-Pro-Tle-Ser-Trp-Ser-NH2] (H-AP[Tle]SWS-NH2)
- cleavage by rat DPP IV (in words) (rat DPP IV): No reaction was observed

Molecule: CC[C@H](C)[C@H](NC(=O)[C@H](Cc1ccccc1)NC(=O)[C@H](CCC(=O)O)NC(=O)[C@H](CCCCN)NC(=O)[C@H](C)NC(=O)[C@H](C)NC(=O)[C@H](CCC(N)=O)NC(=O)CNC(=O)[C@H](CCC(=O)O)NC(=O)[C@H](CC(C)C)NC(=O)[C@H](Cc1ccc(O)cc1)NC(=O)[C@H](CO)NC(=O)[C@H](CO)NC(=O)[C@@H](NC(=O)[C@H](CC(=O)O)NC(=O)[C@H](CO)NC(=O)[C@@H](NC(=O)[C@H](Cc1ccccc1)NC(=O)[C@@H](NC(=O)CNC(=O)[C@H](CCC(=O)O)NC(=O)[C@H](C)NC(=O)[C@@H](N)Cc1c[nH]cn1)[C@@H](C)O)[C@@H](C)O)C(C)C)C(=O)N[C@@H](C)C(=O)N[C@@H](Cc1c[nH]c2ccccc12)C(=O)N[C@@H](CC(C)C)C(=O)N[C@H](C(=O)N[C@@H](CCCCN)C(=O)NCC(=O)N[C@@H](CCCNC(=N)N)C(N)=O)C(C)C [GLP-1, reference compound]
- duration of action (in words) (db mice [1]): largely gone by 60 minutes

Molecule: CC[C@H](C)[C@H](NC(=O)[C@H](Cc1ccccc1)NC(=O)[C@H](CCC(=O)O)NC(=O)[C@H](CCCCN)NC(=O)[C@H](C)NC(=O)[C@H](C)NC(=O)[C@H](CCC(N)=O)NC(=O)CNC(=O)[C@H](CCC(=O)O)NC(=O)[C@H](CC(C)C)NC(=O)[C@H](Cc1ccc(O)cc1)NC(=O)[C@H](CO)NC(=O)[C@H](CO)NC(=O)[C@@H](NC(=O)[C@H](CC(=O)O)NC(=O)[C@H](CO)NC(=O)[C@@H](NC(=O)[C@H](Cc1ccccc1)NC(=O)[C@@H](NC(=O)CNC(=O)[C@@H](NC(=O)[C@H](C)NC(=O)[C@@H](N)Cc1c[nH]cn1)C(C)(C)C(=O)O)[C@@H](C)O)[C@@H](C)O)C(C)C)C(=O)N[C@@H](C)C(=O)N[C@@H](Cc1c[nH]c2ccccc12)C(=O)N[C@@H](CC(C)C)C(=O)N[C@H](C(=O)N[C@@H](CCCCN)C(=O)NCC(=O)N[C@@H](CCCNC(=N)N)C(N)=O)C(C)C [TPA1B4, HAXGTFTSDVSSYLEGQAAKEFIAWLVKGR-NH2]
- 95% confidence interval of EC50 of glucose lowering effect (db mice [2]): 0.1 to 1.92 µg
- EC50 of glucose lowering effect (db mice [2]): 0.4 µg
- amount of GLP-1 receptor activation as measured by cAMP production (human GLP-1 receptor): the same
- blood glucose level reached (in words) (db mice [1]; db mice): within the range observed for normal mice
- duration of blood glucose lowering effect (db mice [1]; db mice): at least 90 minutes
- time of return of blood glucose to hyperglycemic values (db mice [1]; db mice): ≤ 4 h

Molecule: APISWS-NH2 [Ala-Pro-Ile-Ser-Trp-Ser-NH2]
- half-life (rat DPP IV): 41 min

Molecule: APLSWS-NH2 [Ala-Pro-Leu-Ser-Trp-Ser-NH2]
- half-life (rat DPP IV): 49 min

Molecule: HAXGTFTSDVSSYLEGQAAKEFIAWLVKGRZ-NH2 (HAXGTFTSDVSSYLEGQAAKEFIAWLVKGRX; β-dimethyl Asp, biphenylalanine, C-terminal amide) [DGS69]
- duration of action (in words) (db mice [1]): significantly increased the duration
